These results are taken from patent US8981114B2, “Derivatives of 1-(substituted sulfonyl)-2-aminoimidazoline as antitumor and antiproliferative agents” (OncoArendi Therapeutics Sp. z.o.o., priority 2013, dated 2015).

The first experiment relates to colon human tumor (HT-29) cells. Nature of the experiment: Cell growth inhibitory activity, standard MTT assay. The format is cell-based. Conditions: Homo sapiens, MTT assay after 72 hr exposure, 0.1% DMSO, read-out: IC50 range. The method, then: Cell growth inhibitory activity of compounds of this invention was determined using a standard MTT assay. Adherent cells of colon human tumor (HT-29) sourced from ATCC (cells number: HTB-38) were treated with DMSO solutions of tested compounds with the ultimate concentration of DMSO in the test solution being 0.1%. Following the 72 hour long treatment MTT was added, and after a brief incubation the resulting formazan was dissolved in addional DMSO and the solutions were scanned using 570 nm wavelength.
On the technique in general: Tetrazolium dyes change colour on reduction, which living cells bring about.
Turning to `CC(C)NC(=O)N1CCc2cc(S(=O)(=O)N3C[C@H](c4ccccc4)N=C3N)ccc21` [Example 98], the IC50 (as a rule, the midpoint of a concentration-inhibition curve) is under 0.1 µM.

Staying with this experiment, now noted: MTT assay after 72 hr exposure, 0.1% DMSO, read-out: IC50 range.
For the molecule `CC1Cc2cc(S(=O)(=O)N3CC(c4ccccc4)N=C3N)ccc2N1C(=O)c1ccc(N)cc1` (mixture of isomers) [Example 54], the IC50 is under 0.1 µM. Take `NC1=N[C@@H](c2ccccc2)CN1S(=O)(=O)c1ccc2c(c1)CCN2C(=O)c1ccco1` [Example 35]: the IC50 was under 0.1 µM. Take `CC(C)[C@H]1CN(S(=O)(=O)c2ccc3c(c2)CCN3C(=O)c2ccco2)C(N)=N1` [Example 36]: the IC50 was under 0.1 µM. As for `NC1=N[C@@H](C2CCCCC2)CN1S(=O)(=O)c1ccc2c(c1)CCN2C(=O)c1ccco1` [Example 37], the IC50 is under 0.1 µM. `NC1=N[C@@H](c2ccccc2)CN1S(=O)(=O)c1ccc2c(c1)CCN2C(=O)c1cccs1` [Example 38]: the IC50 is under 0.1 µM. Regarding `CC(=O)N1CCc2cc(S(=O)(=O)N3C[C@H](c4ccccc4)N=C3N)ccc21` [Example 39], the IC50 fell in the range of 0.1 to 0.5 µM. For `CCC(=O)N1CCc2cc(S(=O)(=O)N3C[C@H](c4ccccc4)N=C3N)ccc21` [Example 40], the IC50 was under 0.1 µM.

For the molecule `CCCC(=O)N1CCc2cc(S(=O)(=O)N3C[C@H](c4ccccc4)N=C3N)ccc21` [Example 41], the IC50 was under 0.1 µM.

On to `CC(C)C(=O)N1CCc2cc(S(=O)(=O)N3C[C@H](c4ccccc4)N=C3N)ccc21` [Example 42], for which the IC50 was under 0.1 µM. For `NC1=N[C@@H](c2ccccc2)CN1S(=O)(=O)c1ccc2c(c1)CCN2C(=O)Cc1cccs1` [Example 43], the IC50 is under 0.1 µM.

Turning to `NC1=N[C@@H](c2ccccc2)CN1S(=O)(=O)c1ccc2c(c1)CCN2C(=O)c1ccccc1` [Example 44], the IC50 was under 0.1 µM. For `CN(C)c1ccc(C(=O)N2CCc3cc(S(=O)(=O)N4C[C@H](c5ccccc5)N=C4N)ccc32)cc1` [Example 46], the IC50 was under 0.1 µM. Regarding `CCOc1ccc(C(=O)N2CCc3cc(S(=O)(=O)N4C[C@H](c5ccccc5)N=C4N)ccc32)cc1` [Example 47], the IC50 was under 0.1 µM. On to `NC1=N[C@@H](c2ccccc2)CN1S(=O)(=O)c1ccc2c(c1)CCN2C(=O)Cc1ccccc1` [Example 48], for which the IC50 is under 0.1 µM.

As for `COC(=O)N1CCc2cc(S(=O)(=O)N3C[C@H](c4ccccc4)N=C3N)ccc21` [Example 49], the IC50 is under 0.1 µM.

With `CC(=O)N1CCC(C(=O)N2CCc3cc(S(=O)(=O)N4C[C@H](c5ccccc5)N=C4N)ccc32)CC1` [Example 50], the IC50 was under 0.1 µM. In the case of `NC1=N[C@@H](c2ccccc2)CN1S(=O)(=O)c1ccc2c(c1)CCN2C(=O)C1CCCCC1` [Example 51], the IC50 was under 0.1 µM. Still for that read-out and setting: as for `NC1=N[C@@H](c2ccccc2)CN1S(=O)(=O)c1ccc2c(c1)CCN2C(=O)c1cccc2ccccc12` [Example 52], the figure is under 0.1 µM; as for `NC1=N[C@@H](c2ccccc2)CN1S(=O)(=O)c1ccc2c(c1)CCN2C(=O)c1cccnc1` [Example 53], under 0.1 µM. With `CC(C)NC(=S)N1CCc2cc(S(=O)(=O)N3C[C@H](c4ccccc4)N=C3N)ccc21` [Example 55], the IC50 is under 0.1 µM. For `CCCC(=O)N1CCCc2cc(S(=O)(=O)N3C[C@H](c4ccccc4)N=C3N)ccc21` [Example 56], the IC50 is under 0.1 µM. With `CCCC(=O)N1CCc2cc(S(=O)(=O)N3C[C@@H](c4ccccc4)N=C3N)ccc21` [Example 57], the IC50 is over 0.5 µM. Same read-out and setting: with `COc1ccc([C@H]2CN(S(=O)(=O)c3ccc4c(c3)CCN4C(=O)c3cccn3C)C(N)=N2)cc1` [Example 62] the figure was over 0.5 µM. As for `Cn1cccc1C(=O)N1CCc2cc(S(=O)(=O)N3C[C@H](c4ccccc4Cl)N=C3N)ccc21` [Example 64], the IC50 is under 0.1 µM.

Consider `Cc1cccc([C@H]2CN(S(=O)(=O)c3ccc4c(c3)CCN4C(=O)c3cccn3C)C(N)=N2)c1` [Example 65], for which the IC50 lay in the range of 0.1 to 0.5 µM. Same read-out and setting: with `NC1=N[C@@H](c2ccccc2)CN1S(=O)(=O)c1ccc2c(c1)CCN2` [Example 70] the figure was under 0.1 µM. Same read-out and setting: as for `COCCNC(=O)N1CCc2cc(S(=O)(=O)N3CCN=C3N)ccc21` [Example 76], the figure is 0.1 to 0.5 µM; as for `CCCNC(=O)N1CCc2cc(S(=O)(=O)N3C[C@H](c4ccccc4)N=C3N)ccc21` [Example 82], under 0.1 µM. For the molecule `CCCNC(=O)N1CCc2cc(S(=O)(=O)N3C[C@H](c4ccc(F)cc4)N=C3N)ccc21` [Example 83], the IC50 is under 0.1 µM. Still for that read-out and setting: with `CCCNC(=O)N1CCc2cc(S(=O)(=O)N3C[C@H](c4ccc(OC)cc4)N=C3N)ccc21` [Example 84] the figure was 0.1 to 0.5 µM. On to `CCCNC(=O)N1CCc2cc(S(=O)(=O)N3C[C@H](c4ccccc4C)N=C3N)ccc21` [Example 87], for which the IC50 is under 0.1 µM. Still for that read-out and setting: as for `CCCCNC(=O)N1CCc2cc(S(=O)(=O)N3C[C@H](c4ccccc4)N=C3N)ccc21` [Example 89], the figure is under 0.1 µM; as for `CCCCNC(=O)N1CCc2cc(S(=O)(=O)N3C[C@H](c4cccc(Cl)c4)N=C3N)ccc21` [Example 93], under 0.1 µM; as for `CCCCNC(=O)N1CCc2cc(S(=O)(=O)N3C[C@H](c4ccccc4C)N=C3N)ccc21` [Example 95], under 0.1 µM. With `CCCCNC(=O)N1CCc2cc(S(=O)(=O)N3C[C@H](c4ccc(Cl)cc4)N=C3N)ccc21` [Example 97], the IC50 is 0.1 to 0.5 µM. With `NC1=N[C@@H](c2ccccc2)CN1S(=O)(=O)c1ccc2c(c1)CCN2C(=O)NCC1CC1` [Example 100], the IC50 was under 0.1 µM. Consider `CC(C)(C)CNC(=O)N1CCc2cc(S(=O)(=O)N3C[C@H](c4ccccc4)N=C3N)ccc21` [Example 102], for which the IC50 was under 0.1 µM.
